Source: ChEMBL document CHEMBL1201862, “PubChem BioAssay data set” (2004)
The source made the active and inactive calls.

Columns and labels:
[1] = Trypanosoma cruzi growth suppression in host cells – NIH3T3 host cells, beta-gal luminescence, confirmation (AID 2044); format: functional, cell-based;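 note: intracellular parasites grown in NIH/3T3 mouse fibroblasts as host cells; luminescent beta-galactosidase reporter signal from transgenic T. cruzi replicating inside host cells; inhibitors lower the luminescence signal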
[2] = NIH3T3 cell viability loss – ATP luminescence, mouse fibroblasts, counter-screen, dose response (AID 2010); format: functional, cell-based;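 note: cells exposed to compound for about 90 hours before reading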
[3] = target: Botulinum neurotoxin type A (Clostridium botulinum (strain Hall / ATCC 3502 / NCTC 13319 / Type A), UniProt P0DPI1); experiment: High-throughput multiplex microsphere dose response for inhibitors of toxin protease, specifically Botulinum neurotoxin light chain A protease, compounds from Cherry Pick 02.; format: functional; conditions: read-out: EC50_MICROM
Chain of Botulinum neurotoxin type A (P0DPI1 2-448 limits assumed): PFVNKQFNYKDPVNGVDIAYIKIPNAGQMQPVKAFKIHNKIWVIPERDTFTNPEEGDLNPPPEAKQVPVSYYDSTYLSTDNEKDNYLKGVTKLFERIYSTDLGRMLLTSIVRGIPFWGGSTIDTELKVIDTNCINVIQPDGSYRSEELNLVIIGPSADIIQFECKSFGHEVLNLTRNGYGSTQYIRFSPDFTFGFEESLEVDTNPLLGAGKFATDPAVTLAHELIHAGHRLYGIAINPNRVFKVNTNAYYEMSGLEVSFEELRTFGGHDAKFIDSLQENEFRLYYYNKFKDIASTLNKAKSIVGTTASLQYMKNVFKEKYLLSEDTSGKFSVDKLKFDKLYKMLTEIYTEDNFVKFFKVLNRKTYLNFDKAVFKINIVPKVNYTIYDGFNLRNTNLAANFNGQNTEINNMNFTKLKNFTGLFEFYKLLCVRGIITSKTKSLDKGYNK

Lethal factor = Lethal factor (Bacillus anthracis, UniProt P15917); experiment: High-throughput multiplex microsphere dose response for inhibitors of toxin protease, specifically Lethal Factor protease, compounds from Cherry Pick 02.; format: functional; conditions: read-out: EC50_MICROM
Chain of Lethal factor (P15917 whole entry): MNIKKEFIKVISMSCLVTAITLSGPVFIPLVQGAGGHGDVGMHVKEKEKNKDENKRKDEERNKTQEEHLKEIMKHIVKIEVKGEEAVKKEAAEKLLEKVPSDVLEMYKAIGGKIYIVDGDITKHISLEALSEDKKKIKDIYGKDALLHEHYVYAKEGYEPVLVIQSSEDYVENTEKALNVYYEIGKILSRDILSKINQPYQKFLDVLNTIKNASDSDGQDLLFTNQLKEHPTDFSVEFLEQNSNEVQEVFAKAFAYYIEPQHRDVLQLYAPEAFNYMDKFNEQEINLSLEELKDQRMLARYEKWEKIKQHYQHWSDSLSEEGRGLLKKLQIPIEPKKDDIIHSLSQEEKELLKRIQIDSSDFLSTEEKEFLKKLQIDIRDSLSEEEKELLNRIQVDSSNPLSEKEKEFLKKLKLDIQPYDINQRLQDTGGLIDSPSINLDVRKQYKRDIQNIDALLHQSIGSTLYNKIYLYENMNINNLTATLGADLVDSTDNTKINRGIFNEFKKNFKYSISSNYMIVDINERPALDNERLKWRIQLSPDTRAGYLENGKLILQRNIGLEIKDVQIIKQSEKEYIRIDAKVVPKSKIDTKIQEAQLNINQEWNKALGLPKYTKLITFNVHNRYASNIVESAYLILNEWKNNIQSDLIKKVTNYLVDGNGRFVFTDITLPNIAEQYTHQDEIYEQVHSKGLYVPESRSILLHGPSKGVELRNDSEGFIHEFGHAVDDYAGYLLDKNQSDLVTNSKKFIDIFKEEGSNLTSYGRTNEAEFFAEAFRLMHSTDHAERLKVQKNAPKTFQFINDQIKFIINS

[4] = target: Botulinum neurotoxin type F (Clostridium botulinum, UniProt P30996); experiment: High-throughput multiplex microsphere dose response for inhibitors of toxin protease, specifically Botulinum neurotoxin light chain F protease, compounds from Cherry Pick 02.; format: functional; conditions: read-out: EC50_MICROM
Chain of Botulinum neurotoxin type F (P30996 1-436 limits assumed): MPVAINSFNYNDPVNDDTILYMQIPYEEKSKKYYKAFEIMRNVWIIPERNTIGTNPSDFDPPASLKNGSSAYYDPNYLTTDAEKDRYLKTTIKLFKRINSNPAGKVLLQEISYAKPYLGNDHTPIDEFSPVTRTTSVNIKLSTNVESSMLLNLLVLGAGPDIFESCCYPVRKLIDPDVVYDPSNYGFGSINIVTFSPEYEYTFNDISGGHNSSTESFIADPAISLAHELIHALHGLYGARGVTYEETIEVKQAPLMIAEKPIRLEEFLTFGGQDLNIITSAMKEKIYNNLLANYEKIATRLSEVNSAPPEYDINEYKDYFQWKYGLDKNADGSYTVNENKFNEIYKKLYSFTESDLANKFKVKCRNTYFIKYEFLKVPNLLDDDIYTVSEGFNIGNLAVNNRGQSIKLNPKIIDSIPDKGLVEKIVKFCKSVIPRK

Aurora kinase A = Aurora kinase A (Homo sapiens, UniProt O14965); format: functional;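 note: value from the Navigating the Kinome kinase panel profiling, panel entry STK6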
[5] = target: Serine/threonine-protein kinase Chk1 (Homo sapiens, UniProt O14757); format: functional;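 note: measured as one member of a kinome-wide kinase profiling panel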
Chain of Serine/threonine-protein kinase Chk1 (O14757 whole entry): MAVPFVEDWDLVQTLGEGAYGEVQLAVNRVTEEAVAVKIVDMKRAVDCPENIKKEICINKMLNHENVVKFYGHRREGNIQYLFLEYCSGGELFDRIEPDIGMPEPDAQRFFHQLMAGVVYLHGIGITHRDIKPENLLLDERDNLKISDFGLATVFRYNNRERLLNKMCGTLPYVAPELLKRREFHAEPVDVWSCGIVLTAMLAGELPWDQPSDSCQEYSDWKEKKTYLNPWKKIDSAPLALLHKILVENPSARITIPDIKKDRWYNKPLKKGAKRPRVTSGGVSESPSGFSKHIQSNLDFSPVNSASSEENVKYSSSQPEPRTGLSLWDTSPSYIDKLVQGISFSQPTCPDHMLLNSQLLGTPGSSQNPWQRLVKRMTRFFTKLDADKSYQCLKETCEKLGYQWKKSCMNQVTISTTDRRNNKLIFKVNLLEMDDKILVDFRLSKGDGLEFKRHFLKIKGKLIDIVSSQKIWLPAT

[6] = target: T1, Protein disulfide-isomerase (Homo sapiens, UniProt P07237); experiment: inhibition of PDI-driven insulin aggregation – biochemical, turbidity, absorbance, cherry-picked samples, dose response (AID 602350); format: functional
T1 sequence (P07237 whole entry): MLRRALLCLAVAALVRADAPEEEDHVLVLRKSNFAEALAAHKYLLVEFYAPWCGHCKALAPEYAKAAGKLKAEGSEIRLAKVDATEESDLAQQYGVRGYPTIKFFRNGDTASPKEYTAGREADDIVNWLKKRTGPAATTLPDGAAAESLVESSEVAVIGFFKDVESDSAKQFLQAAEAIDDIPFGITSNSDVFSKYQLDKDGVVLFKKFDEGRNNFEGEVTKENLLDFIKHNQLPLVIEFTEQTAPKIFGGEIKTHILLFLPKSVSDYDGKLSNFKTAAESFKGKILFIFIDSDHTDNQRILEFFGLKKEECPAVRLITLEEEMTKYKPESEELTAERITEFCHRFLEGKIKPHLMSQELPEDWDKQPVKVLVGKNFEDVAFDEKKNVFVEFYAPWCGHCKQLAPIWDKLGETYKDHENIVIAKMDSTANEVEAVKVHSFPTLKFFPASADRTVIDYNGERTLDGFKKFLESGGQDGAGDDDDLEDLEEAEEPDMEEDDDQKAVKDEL

[7] = target: T1, Protein disulfide-isomerase; experiment: inhibition of PDI-mediated insulin reduction – biochemical, turbidity, absorbance, cherry-picked samples, set 2, dose response (AID 624274); format: functional
[8] = target: Serine/threonine-protein kinase pim-1 (Homo sapiens, UniProt P11309); format: functional
Chain of Serine/threonine-protein kinase pim-1 (P11309 whole entry): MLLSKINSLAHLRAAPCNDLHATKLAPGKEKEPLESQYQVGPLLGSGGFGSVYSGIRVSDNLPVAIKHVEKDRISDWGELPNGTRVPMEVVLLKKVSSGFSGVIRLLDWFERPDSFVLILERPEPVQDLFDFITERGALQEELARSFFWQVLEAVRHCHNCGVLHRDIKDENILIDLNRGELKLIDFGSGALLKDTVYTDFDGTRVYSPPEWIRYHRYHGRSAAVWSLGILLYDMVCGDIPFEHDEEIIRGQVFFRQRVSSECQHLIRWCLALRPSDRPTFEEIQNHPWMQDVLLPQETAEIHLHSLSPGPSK

[9] = target: Cell division cycle 7-related protein kinase (Homo sapiens, UniProt O00311); format: functional;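 note: value obtained from a kinome-wide kinase panel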
Chain of Cell division cycle 7-related protein kinase (O00311 whole entry): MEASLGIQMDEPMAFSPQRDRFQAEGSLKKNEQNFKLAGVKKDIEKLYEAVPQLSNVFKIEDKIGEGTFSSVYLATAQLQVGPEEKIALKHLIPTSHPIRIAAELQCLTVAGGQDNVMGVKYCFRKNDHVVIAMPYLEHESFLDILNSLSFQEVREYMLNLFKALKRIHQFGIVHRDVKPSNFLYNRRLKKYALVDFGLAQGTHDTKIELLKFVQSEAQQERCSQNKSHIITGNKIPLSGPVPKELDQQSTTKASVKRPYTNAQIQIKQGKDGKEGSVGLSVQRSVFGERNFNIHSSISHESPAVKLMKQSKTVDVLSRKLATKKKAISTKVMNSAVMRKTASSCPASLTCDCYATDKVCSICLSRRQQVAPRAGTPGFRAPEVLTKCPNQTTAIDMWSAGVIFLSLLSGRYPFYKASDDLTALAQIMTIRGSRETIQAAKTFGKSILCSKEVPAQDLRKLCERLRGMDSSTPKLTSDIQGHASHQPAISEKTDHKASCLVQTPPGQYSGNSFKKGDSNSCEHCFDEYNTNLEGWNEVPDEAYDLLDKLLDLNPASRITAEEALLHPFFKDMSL

[10] = target: Homeodomain-interacting protein kinase 2 (Homo sapiens, UniProt Q9H2X6); format: functional;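 note: measured within a kinome-wide kinase profiling panel, HIPK2 being one panel member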
[11] = target: MAP kinase-interacting serine/threonine-protein kinase 2 (Homo sapiens, UniProt Q9HBH9); format: functional
Chain of MAP kinase-interacting serine/threonine-protein kinase 2 (Q9HBH9 whole entry): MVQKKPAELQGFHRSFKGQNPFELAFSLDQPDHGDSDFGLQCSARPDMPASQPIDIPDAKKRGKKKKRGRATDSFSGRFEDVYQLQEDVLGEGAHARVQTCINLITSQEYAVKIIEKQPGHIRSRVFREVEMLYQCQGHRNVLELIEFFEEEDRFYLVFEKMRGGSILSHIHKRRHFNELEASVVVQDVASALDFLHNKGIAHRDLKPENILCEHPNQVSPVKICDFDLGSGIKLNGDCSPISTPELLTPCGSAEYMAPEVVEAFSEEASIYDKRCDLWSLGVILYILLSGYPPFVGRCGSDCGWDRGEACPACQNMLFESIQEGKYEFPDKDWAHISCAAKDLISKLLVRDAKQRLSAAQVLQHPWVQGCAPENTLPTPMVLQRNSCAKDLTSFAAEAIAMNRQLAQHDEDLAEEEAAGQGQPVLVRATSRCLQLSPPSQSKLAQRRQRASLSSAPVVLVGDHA

[12] = target: Interleukin-1 receptor-associated kinase 4 (Homo sapiens, UniProt Q9NWZ3); format: functional
Chain of Interleukin-1 receptor-associated kinase 4 (Q9NWZ3 whole entry): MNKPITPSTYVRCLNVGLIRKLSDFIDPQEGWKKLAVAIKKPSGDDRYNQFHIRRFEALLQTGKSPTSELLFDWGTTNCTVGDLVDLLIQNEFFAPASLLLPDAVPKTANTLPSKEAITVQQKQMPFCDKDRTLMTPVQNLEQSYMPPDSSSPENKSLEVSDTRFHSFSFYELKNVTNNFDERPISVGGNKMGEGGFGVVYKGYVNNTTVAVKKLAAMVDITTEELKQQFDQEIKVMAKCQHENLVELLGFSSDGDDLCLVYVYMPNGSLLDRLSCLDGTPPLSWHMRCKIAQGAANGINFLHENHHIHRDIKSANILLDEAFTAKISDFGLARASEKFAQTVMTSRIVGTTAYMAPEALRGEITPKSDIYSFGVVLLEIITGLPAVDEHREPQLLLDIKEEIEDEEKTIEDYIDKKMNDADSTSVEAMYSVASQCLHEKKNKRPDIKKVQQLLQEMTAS

[13] = target: Glycogen synthase kinase-3 beta (Homo sapiens, UniProt P49841); format: functional;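 note: value comes from a broad kinome profiling panel, with GSK3B as the panel member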
Chain of Glycogen synthase kinase-3 beta (P49841 whole entry): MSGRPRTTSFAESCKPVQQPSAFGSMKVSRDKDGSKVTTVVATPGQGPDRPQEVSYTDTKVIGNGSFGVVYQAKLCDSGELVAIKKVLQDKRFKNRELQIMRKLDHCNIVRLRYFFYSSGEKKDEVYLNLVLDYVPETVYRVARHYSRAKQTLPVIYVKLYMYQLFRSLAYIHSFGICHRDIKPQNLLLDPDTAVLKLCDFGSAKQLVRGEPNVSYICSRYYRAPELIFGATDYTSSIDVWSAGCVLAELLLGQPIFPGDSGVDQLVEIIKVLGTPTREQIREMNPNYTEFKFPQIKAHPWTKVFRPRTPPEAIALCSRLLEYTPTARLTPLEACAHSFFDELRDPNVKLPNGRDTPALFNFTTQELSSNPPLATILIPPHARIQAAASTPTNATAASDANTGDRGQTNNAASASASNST

[14] = target: cAMP-dependent protein kinase catalytic subunit alpha (Homo sapiens, UniProt P17612); format: functional
[15] = target: Dual specificity protein kinase CLK4 (Homo sapiens, UniProt Q9HAZ1); format: functional
[16] = target: Mitogen-activated protein kinase kinase kinase kinase 4 (Homo sapiens, UniProt O95819); format: functional

Question: Which results are given for `Cc1cc2ccccc2n1CCNC(=O)COc1ccccc1`?
Answer: EC50 [1]: 1.16 µM (active); EC50 [2]: > 30 µM (not active); EC50 [3]: 4.9 µM (active); EC50 (Lethal factor): 1.4 µM (active); EC50 [4]: > 20 µM (inactive)

Question: With `CN(C)c1ncnc2[nH]ncc12` as the compound, how does the Ki (Aurora kinase A) read?
Answer: Its Ki is 12.6 µM (active).

Question: And the Ki [5]?
Answer: Its Ki is 5.01 µM (active).

Question: Which results are given for `O=C1NC(Cc2ccc(O)cc2)c2nc3ccccc3c(=O)n2-c2ncccc21` (stereo not drawn)?
Answer: AC50 [6]: < 9 nM (active); AC50 [7]: 9 nM (active)

Question: Which results are given for `Nc1n[nH]c2ccc(-c3nnn(Cc4ccccc4)c3C3CC3)cc12`?
Answer: Ki [8]: 3.98 µM (active); Ki [9]: 31.6 nM (active); Ki [10]: 2 µM (active); Ki [11]: 398 nM (active); Ki [12]: > 10 µM (inactive); Ki [13]: 7.94 nM (active); Ki [14]: 631 nM (active); Ki [15]: 25.1 nM (active); Ki [16]: 1 µM (active)
